Values of other authors, collected in patent US5360794A, “Disubstituted and deoxy disubstituted derivatives of α-D-mannofuranosides and β-L-gulofuranosides having anti-inflammatory and anti-proliferative activity” (Medicarb Inc., priority 1992, dated 1994).
Counter-ions that a name gives are not always drawn.

Test system: rheumatoid arthritis
Conditions: late Phase III clinical trials; cited from earlier work

Question: For `CN(C)CCCO[C@@H]1[C@H]2OC(C)(C)O[C@H]2O[C@@H]1[C@H](O)CO` [Amiprilose HCl, 1,2-O-isopropylidene-3-O-3'-(N', N'-dimethylaminopropyl)-α-D-glucofuranose], which “clinical utility in rheumatoid arthritis” value is on record?
Answer: The value was “demonstrated utility in managing the signs and symptoms of rheumatoid arthritis”.
